# Data from patent US9981960B2, “Pyrrolidine compound and application as melanocortin receptor agonist” (MITSUBISHI TANABE PHARMA CORPORATION, priority 2014, dated 2018).
# Target: T1, Human MC1R (Homo sapiens, UniProt Q01726)
# T1 construct: endogenous in cells; host or cells: human melanoma cell line HBL
# Assay: MCR agonist measurement (cAMP measurement), human MC1R agonist activity in human melanoma cell line HBL
# Type: cell-based
# Conditions: HBL cells; for EC50: 37° C. for 30 minutes, intracellular cAMP by fluorescence method; for Human MC1R IA %: Intrinsic Activity, vehicle cAMP = 0%, αMSH at 10^-6 M = 100%
# Procedure: (1) Method for Culturing Cells
# Human MC1R agonist activity measurement was carried out by using human melanoma cell line HBL. Culture of HBL: F-10 Nutrient Mixture containing 10% FCS and Penicillin-streptomycin was used in the culture.
# (2) cAMP Assay and Data Calculation
# Each compound solution having each concentration was mixed with cAMP assay buffer (HBSS (Hank's Balanced Salt Solution) containing 10 mM HEPES and 0.1% BSA), and dispensed into 96 well plate. HBL was suspended in cAMP assay buffer containing 0.5 mM IBMX so that the concentrate became 5×10^4/mL, dispensed into the above 96 well plate, then mixed, left to stand at 37° C. for 30 minutes, and then the intracellular […] concentration was measured by fluorescence method using Envision (ex. 320 nm, em. 590 nm and 665 nm).
# T1 sequence (Q01726 whole entry): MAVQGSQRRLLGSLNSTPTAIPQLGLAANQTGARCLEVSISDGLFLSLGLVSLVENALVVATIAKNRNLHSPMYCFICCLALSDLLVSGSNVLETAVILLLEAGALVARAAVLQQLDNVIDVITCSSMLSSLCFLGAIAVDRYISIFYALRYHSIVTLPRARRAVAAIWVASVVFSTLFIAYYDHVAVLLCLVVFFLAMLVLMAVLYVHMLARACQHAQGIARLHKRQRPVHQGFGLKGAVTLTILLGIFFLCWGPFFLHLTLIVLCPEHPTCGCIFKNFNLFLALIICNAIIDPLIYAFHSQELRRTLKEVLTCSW
Compound,EC50 [nM],Human MC1R IA % [%]
COC[C@@H]1C[C@@H](c2ccc(C(F)(F)F)cc2N2CCC(C(=O)O)CC2)CN1C(=O)[C@]1(F)CN(C2CCOCC2)C[C@H]1c1ccc(OC)cc1 [Example 137],7.3,106
"COc1ccc([C@@H]2CN(C(C)(C)C)C[C@@]2(F)C(=O)N2CCC(c3ccc(C(F)(F)F)cc3N3CCN(C(C)=O)CC3)CC2)cc1.Cl.Cl [Example 282, 1-{4-[2-(1-{[(3R,4R)-1-tert-butyl-3-fluoro-4-(4-methoxyphenyl)pyrrolidin-3-yl]carbonyl}piperidin-4-yl)-5-(trifluoromethyl)phenyl]piperazin-1-yl}ethanone dihydrochloride]",27,79
COc1ccc([C@@H]2CN(C3CCN(C(CF)CF)CC3)C[C@@]2(F)C(=O)N2CCC(c3ccc(C(F)(F)F)cc3N3CCC(C(=O)O)CC3)CC2)cc1 [Example 193],17,103
COc1ccc([C@@H]2CN(C(C)(C)C)C[C@@]2(F)C(=O)N2CCC(c3ccc(C(F)(F)F)cc3-c3nc(C(=O)O)co3)CC2)cc1 [Example 79],67,103
"COc1ccc([C@@H]2CN(C3CCCC3)C[C@@]2(F)C(=O)N2CC(c3ccc(C(F)(F)F)cc3N3CCC(C(=O)O)CC3)C(F)(F)C2)cc1 (single isomer, unassigned) [Example 293]",20,99
COc1ccc([C@@H]2CN(C3CCOC3)C[C@@]2(F)C(=O)N2CCC(c3ccc(C(F)(F)F)cc3N3CCC(C(=O)O)CC3)CC2)cc1 (stereo partly shown) [Example 289],124,55
"COc1ccc([C@@H]2CN(C3CCCC3)C[C@@]2(F)C(=O)N2CCCC(c3ccc(C(F)(F)F)cc3N3CCC(C(=O)O)CC3)C2)cc1 (single isomer, unassigned) [Example 292]",217,25
COC[C@H]1CN(C(=O)[C@]2(F)CN(C3CCCC3)C[C@H]2c2ccc(C)cc2)C[C@@H]1c1ccc(C(F)(F)F)cc1N1CCC(C(=O)O)CC1 [Example 22],17,74
COc1ccc([C@@H]2CN(C(C)(C)CO)C[C@@]2(F)C(=O)N2CCC(c3ccc(C(F)(F)F)cc3N3CCC(C(=O)O)CC3)CC2)cc1 [Example 320],30,79
"COc1ccc([C@@H]2CN(C(C)(C)C)C[C@@]2(F)C(=O)N2CCC(c3ccc(C(F)(F)F)cc3OCCCc3nnn[nH]3)CC2)cc1.Cl [Example 280, [(3R,4R)-1-tert-butyl-3-fluoro-4-(4-methoxyphenyl)pyrrolidin-3-yl](4-{2-[3-(1H-tetrazol-5-yl)propoxy]-4-(trifluoromethyl)phenyl}piperidin-1-yl)methanone hydrochloride]",42,86
COc1ccc([C@@H]2CN(CCCC(=O)N(C)C)C[C@@]2(F)C(=O)N2CCC(c3ccc(C(F)(F)F)cc3N3CCC(C(=O)O)CC3)CC2)cc1 [Example 304],8.7,89
COc1ccc([C@@H]2CN(C3CCOCC3)C[C@@]2(F)C(=O)N2CC[C@@H](c3ccc(C(F)(F)F)cc3N3CCC(C(=O)O)CC3)C2)cc1 [Example 215],14,59
COC[C@H]1CN(C(=O)[C@]2(F)CN([C@H]3CC[C@H](OC)CC3)C[C@H]2c2ccc(OC)cc2)C[C@@H]1c1ccc(C(F)(F)F)cc1N1CCC(C(=O)O)CC1 [Example 99],4.7,117
COc1ccc([C@@H]2CN(C3CCOC3)C[C@@]2(F)C(=O)N2CCC(c3ccc(C(F)(F)F)cc3N3CCC(C(=O)O)CC3)CC2)cc1 (stereo partly shown) [Example 290],115,69
COc1ccc([C@@H]2CN(C(C)(C)C)C[C@@]2(F)C(=O)N2CCC(c3ccc(Cl)cc3N3CCC(C(=O)O)CC3)CC2)cc1 [Example 195],40,87
COc1ccc([C@@H]2CN(C(C)(C)C)C[C@@]2(F)C(=O)N2CCC(c3ccc(C(F)(F)F)cc3N3CCC(C(=O)N4CCCC4)CC3)CC2)cc1 [Example 235],79,124

Compound,EC50 [nM],Human MC1R IA % [%]
COC[C@H]1CN(C(=O)[C@]2(F)CN(C3CCCC3)C[C@H]2c2ccc(OC)cc2)C[C@@H]1c1ccc(C(F)(F)F)cc1N1CCC(C(=O)N(C)C)CC1 [Example 248],5.1,92
COc1ccc([C@@H]2CN(C3CCCC3)C[C@@]2(F)C(=O)N2C[C@H](c3ccc(F)cc3N3CCC(C(=O)O)CC3)[C@@H](C)C2)cc1 [Example 100],9.7,90
"COc1ccc([C@@H]2CN(C(C)(C)C)C[C@@]2(F)C(=O)N2C[C@H](CO)[C@@H](c3ccc(C(F)(F)F)cc3N3CCC(C(=O)O)CC3)C2)cc1.Cl.Cl [Example 224, 1-{2-[(3S,4R)-1-{[(3R,4R)-1-tert-butyl-3-fluoro-4-(4-methoxyphenyl)pyrrolidin-3-yl]carbonyl}-4-(hydroxymethyl)pyrrolidin-3-yl]-5-(trifluoromethyl)phenyl}piperidine-4-carboxylic acid dihydrochloride]",11,109
COc1ccc([C@@H]2CN(C3CCCC3)C[C@@]2(F)C(=O)N2C[C@H](c3ccc(C(F)(F)F)cc3N3CCC(C(=O)O)CC3)C[C@H]2CF)cc1 [Example 299],0.7,83
COC[C@@H]1C[C@@H](c2ccc(C(F)(F)F)cc2N2CCC(C(=O)O)CC2)CN1C(=O)[C@]1(OC)CN(C2CCCCCC2)C[C@H]1c1ccc(OC)cc1 [Example 154],1.1,85
COC[C@H]1CN(C(=O)[C@]2(F)CN(C3CCCC3)C[C@H]2c2ccc(OC)cc2)C[C@@H]1c1ccc(C(F)(F)F)cc1N1CCC(C(=O)O)CC1 [Example 19],–,88
COC[C@@H]1C[C@@H](c2ccc(C(F)(F)F)cc2N2CCC(C(=O)O)CC2)CN1C(=O)[C@]1(F)CN([C@H]2CC[C@H](C#N)CC2)C[C@H]1c1ccc(OC)cc1 [Example 143],0.76,96
COc1ccc([C@@H]2CN([C@H]3CC[C@H](OC)CC3)C[C@@]2(F)C(=O)N2CC[C@@H](c3ccc(F)cc3N3CCC(C(=O)O)CC3)C2)cc1 [Example 218],4.3,110
COc1ccc([C@@H]2CN(C(C)(C)C)C[C@@]2(F)C(=O)N2CCC(c3ccc(C(F)(F)F)cc3C(N)=O)CC2)cc1 [Example 267],80,112
"COc1ccc([C@@H]2CN(C(C)(C)C)C[C@@]2(F)C(=O)N2CC[C@@H](c3ccc(C(F)(F)F)cc3N3CCC(C(=O)O)CC3)C2)cc1.Cl.Cl [Example 286a, 1-{2-[(3S)-1-{[(3R,4R)-1-tert-butyl-3-fluoro-4-(4-methoxyphenyl)pyrrolidin-3-yl]carbonyl}pyrrolidin-3-yl]-5-(trifluoromethyl)phenyl}piperidine-4-carboxylic acid dihydrochloride]",4.4,105
"COc1ccc([C@@H]2CN(C(C)(C)C)C[C@@]2(F)C(=O)N2C[C@H](C(=O)O)[C@@H](c3ccc(C(F)(F)F)cc3N3CCC(C(=O)OC(C)(C)C)CC3)C2)cc1 [Example 223, (3R,4S)-4-{2-[4-(tert-butoxycarbonyl)piperidin-1-yl]-4-(trifluoromethyl)phenyl}-1-{[(3R,4R)-1-tert-butyl-3-fluoro-4-(4-methoxyphenyl)pyrrolidin-3-yl]carbonyl}pyrrolidin-3-carboxylic acid]",90,71
COc1ccc([C@@H]2CN([C@H]3CC[C@H](OC)CC3)C[C@@]2(F)C(=O)N2CCC(c3ccc(C(F)(F)F)cc3N3CCC(C(=O)O)CC3)CC2)cc1 [Example 98],15,89
"COc1ccc([C@@H]2CN(C(C)(C)C)C[C@@]2(F)C(=O)N2CCC(c3ccc(C(F)(F)F)cc3N3CCNCC3)CC2)cc1 [Example 281, [(3R,4R)-1-tert-butyl-3-fluoro-4-(4-methoxyphenyl)pyrrolidin-3-yl]{4-[2-(piperazin-1-yl)-4-(trifluoromethyl)phenyl]piperidin-1-yl}methanone]",19,72
"COc1ccc([C@@H]2CN(C(C)(C)C)C[C@@]2(F)C(=O)N2CCC(c3ccc(C(F)(F)F)cc3OCCCc3noc(=O)[nH]3)CC2)cc1.Cl [Example 295, 3-{3-[2-(1-{[(3R,4R)-1-tert-butyl-3-fluoro-4-(4-methoxyphenyl)pyrrolidin-3-yl]carbonyl}piperidin-4-yl)-5-(trifluoromethyl)phenoxy]propyl}-1,2,4-oxadiazole-5(4H)-one hydrochloride]",31,91
COC[C@H]1CN(C(=O)[C@]2(F)CN(C3CCCC3)C[C@H]2c2ccc(OC)cc2)C[C@@H]1c1ccc(OC(F)(F)F)cc1N1CCC(C(=O)O)CC1 [Example 130],11,76
